What was measured:
[1] = Effect of various excipients on silymarin solubility; type: physicochemical
Experimental: The effect of various excipients on the silymarin solubility was measured. […] Mixtures were centrifuged at 16,000× g for 10 min and supernatants filtered through a membrane filter (pore size; 0.22 μm). Filtrates were diluted in 85% acetonitrile and silybin concentrations analyzed using a liquid chromatography-tandem mass spectrometry (LC-MS/MS) system.

[2] = Intestinal permeability of silybin, Ussing chamber; conditions: male, Wistar, rat, pH 7.4
Experimental: Male Wistar rats weighing 225–270 g (eight weeks old, n = 28) were purchased from Samtako Co. (Osan, Korea). Rats were housed in a 12-h light/dark cycle, and food and water were supplied ad libitum for one week prior to animal studies. […] Rats were fasted for 16 h, but had free access to water before study commencement. […] A proximal jejunum section (approximately 10 cm) was excised and washed in prewarmed HBSS (pH 7.4). Segments were mounted on a tissue holder of a Navicyte Easy Mount Ussing Chamber (Warner Instruments, Holliston, MA, USA), with a surface area of 0.76 cm², and acclimated in HBSS for 15 min with continuous oxygenation (95% O₂/5% CO₂ gas). […]
To investigate whether efflux transporters were involved in this process, an apical to basal (A to B) and a basal to apical (B to A) transport of 20 μM silybin in the presence of representative inhibitors of P-gp, MRPs, and BCRPs such as 20 μM cyclosporine A (CsA), 100 μM MK-571, and 20 μM fumitremorgin C (FTC), respectively, were measured in a proximal jejunum section from control rats (n = 4) [45, 46]. The effects of TPGS (0.01–1 mg/mL) on silybin permeability were also measured in a proximal jejunum section from control rats (n = 4) using the above method. […]

rat jejunal segments = assay: Lucifer yellow permeability (intestinal integrity), Ussing chamber; type: in vitro ADME
Experimental: Segments were mounted on a tissue holder of a […] […] Lucifer yellow fluorescence in 200 μL sample aliquots was measured using a fluorescence spectrophotometer (Infinite 200 PRO, Tecan, Switzerland) at an excitation wavelength of 425 nm and emission wavelength of 535 nm.

[3] = Liver distribution of silybin after repeated oral administration in APAP-induced hepatotoxic rats; conditions: rat, in vivo
Experimental: To investigate the liver distribution of silymarin and silymarin-SD, blood samples were collected from the abdominal artery at 0.5, 1, 2, 4, and 24 h after the repeated oral administration of silymarin (20 mg/kg as silybin, n = 20) or silymarin-SD (20 mg/kg as silybin, n = 20), according to the dosing schedule. Immediately after blood sampling, the liver was excised, rinsed in saline, and homogenized in nine volumes of saline, using a tissue homogenizer. Aliquots (50 μL) of 10% liver homogenate samples were stored at −80 °C for silybin assay.
Silybin concentrations in plasma and 10% liver homogenate samples were analyzed. Samples (100 μL) were added to 300 μL IS (naringenin, 20 ng/mL in acetonitrile) and the mixture was vigorously mixed for 10 min, followed by centrifugation at 16,000× g for 5 min. Supernatant aliquots (5 μL) were directly injected into an LC-MS/MS system.

[4] = in vivo; cited from earlier work

With polyvinylpyrrolidone [PVP] the “increase in silymarin solubility in the presence of excipient” value (shortened to “increase in silymarin solubility”) [1] was “highest increase”.

Work on COc1cc(C2Oc3cc([C@H]4Oc5cc(O)cc(O)c5C(=O)[C@@H]4O)ccc3OC2CO)ccc1O (stereo partly shown) [silybin, Silybin] yielded an efflux ratio at 2 h, 20 μM [2] of 5.8.

For Poloxamer 407, the “increase in silymarin solubility” value [1] was 2~3 fold.

With Lucifer yellow [reference compound] the “Papp,AB of Lucifer yellow” value (rat jejunal segments; intestinal segment of APAP-induced hepatotoxic rats) was 0.28 ×10⁻⁶ cm/s.

With hydroxypropyl cellulose [HPC] the “increase in silymarin solubility” value [1] was “less than 1.5 fold”.

In the case of Silymarin, the “time course of liver silybin concentration” value [3] is listed as “decreased sharply for 4 h”, the bioavailability [4] is listed as 23–47% and the “Papp,AB of Lucifer yellow in the presence of silymarin or silymarin-SD” value (rat jejunal segments) is listed as “not different”.

With pluronic F127 the “increase in silymarin solubility” value [1] was 2~3 fold.

In the case of Tween 80, the “increase in silymarin solubility” value [1] is reported as 2~3 fold.

Reference: PMC8146637, “Enhanced Bioavailability and Efficacy of Silymarin Solid Dispersion in Rats with Acetaminophen-Induced Hepatotoxicity” (Pharmaceutics, 2021)
